Data on 2 molecules can be found in paper PMC9400670, “Establishing the selective phospholipid membrane coordination, permeation and lysis properties for a series of ‘druggable’ supramolecular self-associating antimicrobial amphiphiles” (Chemical Science, 2022).

Assay [1] has as its system MRSA USA300. The experiment in a line: MIC50 determination and initial screening from OD600 growth curves, MRSA USA300. Particulars: Staphylococcus aureus, 15 h, Table S3, conversion of the mM values of Table 1; MRSA USA300; after 900 mins. It is filed as cell-based, Staphylococcus aureus. From the text: (§1) The antimicrobial activity of SSAs 1–14 was established against both a model Gram-positive, clinically relevant methicillin resistant Staphylococcus aureus (MRSA), and a model Gram-negative, E. coli bacteria, Table 1. Here MIC50 values are given in mM to enable the derivation of molecular structure: antimicrobial efficacy: physical property relationships. […]
(§2) Data were acquired in endpoint mode. […]
(§3) Section 3: Microbial Methods
(§4) These methods were taken directly from UK Health and Security Office (UKHSA) standard operating […]
(§5) Preparation of Luria Broth media (LB): Yeast extract (5 g), tryptone (10 g) and sodium chloride (10 g) were dissolved in dH₂O (1 L) then divided into bottles and autoclaved.
(§6) Preparation of Luria Broth (LB) agar plates: Agar (6 g) was added to LB (400 mL) and autoclaved. Once cool, the LB agar was poured into sterile petri dishes under sterile conditions and allowed to set. LB plates were stored at 4 °C until use.
(§7) Preparation of bacterial plates: Sterile LB agar plates were streaked using Escherichia coli DH10B or USA300 Methicillin-Resistant Staphylococcus aureus then incubated at 37 °C overnight.
(§8) Preparation of Inoculum: An initial culture was made up by inoculating LB media (5 mL) with a single colony of bacteria under sterile conditions and incubated at 37 °C with shaking overnight. The following day, overnight bacterial cultures were subcultured into fresh LB medium to a starting OD600 […]
(§9) Preparation of 96 well microplate for screening: 20 mM solutions of each compound to be tested were made up using 5 % ethanol. The 1:100 cell suspension (150 µL) was pipetted into the wells and SSA compound solutions (30 µL) were added into each well. The final screening concentration for each compound was 3.3 mM in the well. These were incubated for 20 hours in a plate reader, with optical density readings being taken at 600 nm every 15 minutes. Optical density readings were plotted against time to produce growth curves. […]
(§10) individual wells under sterile conditions. Compounds (30 µL) were added to the wells to equal a total volume of 180 µL in the wells. Six repeats of each concentration for each compound were created each plate. The plates were sealed using parafilm, then incubated at 37°C in a microplate reader for 18-25 hours. Optical density readings were taken at 600 nm every 15 min. Data was used to generate […]
(§11) Calculation of MIC50: Growth curves were plotted using OD600 optical density readings in Microsoft ® Excel ® 2013. OD600 optical density readings 900 minutes from the start of each of these growth cultures for each concentration of compound were plotted in Origin ® 2015. The resultant curve was normalized and fitted using the Boltzmann fit to define the MIC50 values for each compound.

Assay [2] relates to calcein loaded phospholipid vesicles (PC, PG, PE-PG mix, E. coli total, E. coli polar). Nature of the assay: Synthetic phospholipid vesicle lysis (calcein leakage) assay. Particulars: SSA 1.5 mM; thirty seconds after SSA addition; five vesicle types; in words. On the procedure:
Here, samples of phospholipid vesicles containing the fluorescent dye calcein were prepared. At internal vesicle concentrations, this dye undergoes self-quenching. […] The increase in fluorescence output is proportional to the % of vesicle lysis observed upon the addition of SSAs 1–14, when calibrated against a solution of vesicles know to have undergone 100% lysis, see Fig. 5.
Fig. 5 The average (n = 3) percentage lysis (%) of vesicles (30 μM) composed of five different lipid compositions (Table 2), with an internal calcein concentration of 70 mM at 298 K. The % vesicle lysis was calculated through observation of increasing fluorescence emission (λem = 515 nm), following the addition of SSAs […] (1.5 mM) in a H2O/EtOH 95 : 5 solution after: (a) 30 s and; (b) 15 min. Triton X-100 (1%) was used as a positive control for 100% vesicle lysis. Data normalised to the addition of a H2O/EtOH 95 : 5 solution. Red = PC, yellow = PG, green = PE-PG mix, blue = E. coli total, pink = E. coli polar. Error = standard error.
Section 2: General Methods […]
Preparation of vesicles: All lipids were purchased as powder stocks from Avanti Polar Lipids. Lipid vesicles were prepared according to standard procedures.1 Each phospholipid was dissolved in chloroform (~ 10 mL) and the solvent was removed under reduced pressure. The thin film of dried lipid was further dried in vacuo for at least 2 hours. Lipid films were resuspended in the desired buffer and subjected to 9 freeze-thaw cycles in liquid nitrogen and extruded 20 times through a 200 nm […]
Preparation of calcein loaded vesicles: Lipid films were resuspended in buffer A (70 mM calcein, 10 mM TRIS pH 8.5, 0.5 mM EDTA, 110 mM NaCl, pH adjusted to 6-7) and subjected to 9 freeze-thaw cycles in liquid nitrogen and extruded 20 times through a 200 nm polycarbonate membrane. The suspension was run down a size exclusion column packed with sephadex G-50 using buffer B (10 mM TRIS pH 8.5, 0.5 mM EDTA, 110 mM NaCl). The hydrodynamic dimeter of the lipids was monitored using an Anton Paar LitesizerTM 500 to ensure the separation of free and entrapped calcein.
Phospholipid concentration was adjusted to 30 µM for vesicle leakage experiments.
Vesicle leakage assay: Black bottom 96-well plates were prepared with the appropriate lipid solution (100 µL, 30 µM) and desired SSA solution (100 µL) prepared in H2O/EtOH 95: 5. A solution of 1 % Triton X-100 (16) was used for a 100 % lysis control and a H2O/EtOH 95: 5 solution was used as a 0 % lysis control. Fluorescent measurements were taken at 25 °C using an excitation value of 495 nm and an optimised gain of 983. Data were acquired in endpoint mode. All experiments were repeated in triplicate to ensure experimental reproducibility. […]
Data

Assay [3] concerns MRSA USA300. Particulars: n = 3, 0.5 McFarland standard, after 900 min, number in bracket = efficacy rank; cited from earlier work.
The test system of assay [4] is E. coli DH10B. The note with it: after 900 min, cited from earlier work.
The subject of assay [5] is E. coli DH10B. The experiment in a line: MIC50 determination and initial screening from OD600 growth curves, E. coli DH10B. The note with it: Escherichia coli, 15 h; Table S3, conversion of the mM values of Table 1; E. coli DH10B; after 900 mins. The assay is classed as cell-based, Escherichia coli.
Text: as §1, §2, §3, §4, §5, §6, §7, §8, §9, §10, §11

≈ marks a conversion by molar mass, not a printed value.

As for `CCCCNC(=O)NCS(=O)(=O)O` [SSA 13], the MIC50 in assay [1] came to 1990 µg/mL (≈ 9.47 mM). For the same molecule, the vesicle lysis activity entry in assay [2] is recorded as “almost complete loss of any vesicle lysis activity”. Also, the “MIC50 MRSA” value in assay [3] was 4.41(10) mM. In addition, in assay [4] (3.3 mM), the “initial antimicrobial screening, inhibition of growth, E. coli” value was “^c (SSA did not pass initial antimicrobial screening, exhibited <10% inhibition of growth at 3.3 mM after 900 min and therefore excluded from further study)”.
Take `CCCCNC(=S)NCS(=O)(=O)O` [SSA 14]: the MIC50 in assay [1] came out at 1440 µg/mL (≈ 6.34 mM); in assay [5], 2820 µg/mL (≈ 12.5 mM). Also, in assay [2], the vesicle lysis activity result is on record as “almost complete loss of any vesicle lysis activity”. The “MIC50 MRSA” value in assay [3] is reported as 3.07(9) mM. The “MIC50 E. coli” value in assay [4] (E. coli DH10B, n = 3, 0.5 McFarland standard, number in bracket = efficacy rank) is given as 6.03(9) mM.

The MIC50 is the lowest concentration that inhibits either 50% of growth or 50% of the strains tested, depending on the study.
